Data reported in article PMC5602538, “Assessment of the Drug Interaction Potential of Unconjugated and GalNAc3-Conjugated 2′-MOE-ASOs” (Molecular Therapy. Nucleic Acids, 2017).
{GalNAc3} = trishexylamino-C6 triantennary GalNAc conjugate; e = 2'-O-(2-methoxyethyl) (MOE); d = 2'-deoxy (DNA)

Columns and labels:
OAT1 = tested on: T1, OAT1; assay: OAT1 substrate uptake study in MDCK cells; type: in vitro ADME; settings: 10 μM ASO
T1 construct: expressed in transfected cells; host or cells: MDCK-II
Method: A 96-well cell culture plate containing a monolayer of MDCK-II cells grown on a permeable support and a corresponding receiver tray was used. The basolateral compartment of the culture plate and wells were washed with warm HBSS three times, with wells of the culture plate serving as the apical compartment. The wash was aspirated by adding 150 μL of 37°C HBSS to both compartments. Plates were incubated at 37°C with orbital shaking at 60 rpm for 15 min for OAT1, OAT3, OCT1, OCT2, OATP1B1, and OATP1B3 (±5 min). The pre-incubation buffer from both compartments was aspirated and 150 μL of the following was added to the basal compartment. For the probe substrate transport assay, HBSS in each well contained one of following probe substrates (positive control for transport), OCT1, 2 μM [^3H]-MPP^+; OCT2, 10 μM [^14C]-metformin; OAT1, 2 μM [^3H]-p-aminohippurate; OAT3, 10 μM [^3H]-p-aminohippurate; OATP1B1, 2 μM [^3H]-estradiol-17 β-D-glucuronide; and OATP1B3, 2 μM [^3H]-cholecystokinin octapeptide (CCK-8). […] Inhibition studies contained HBSS in each well, the probe substrate, and 100 μM of each test article, whereas substrate studies contained HBSS in each well and 10 μM of each test article. […] Samples containing probe substrate were added to 200 μL of scintillation fluid and counted on a 1450 Microbeta (PerkinElmer), whereas samples containing the test article were kept frozen. Test article concentrations, including control samples, were evaluated by an LC-MS method.
Signal to noise for probe substrates was calculated by dividing the uptake of the probe substrate in transporter-expressing cells by the uptake of probe substrate in control cells not expressing the transporter of interest. Percent inhibition was calculated by dividing the net-transporter-mediated substrate uptake in the presence of the test article or the reference inhibitor by the net-transporter-mediated substrate uptake in the absence of the inhibitor according to the equation: %inhibition=100−(100×(transporter-mediateduptake)withinhibitor/(transporter-mediateduptake)withoutinhibitor).

BCRP = tested on: T2, BCRP; assay: BCRP substrate study, bi-directional flux in MDCK cells; type: in vitro ADME; settings: 10 μM ASO, Papp B to A / Papp A to B
T2 construct: expressed in transfected cells; host or cells: MDCK-II cells
Method: (§1) MDCK-MDR1 cells and MDCK-II cells transfected with BCRP were washed with HBSS at 37°C. Wells of the culture plate served as the apical compartment, and 150 μL of HBSS solutions was added to the apical wells. These solutions also contain one of the following: vehicle (for probe substrate controls), 100 μM test article (for test article inhibition experiments), 1 μM Ko143 (for BCRP inhibition), or 3 μM elacridar (for P-gp inhibition). A 96-well receiver tray was prepared with each well containing 300 μL of buffer solution corresponding to the apical wells. Receiver tray wells served as the basal compartment. The plate and receiver tray were assembled and incubated at 37°C for 30 min. The solution was then aspirated from the apical compartment and the 96-well plate was removed from the receiver tray. Donor and receiver wells for inhibition or donor (containing substrate) and receiver (without substrate) wells for substrate studies were then prepared for bi-directional flux studies. For the probe substrate transport assays, HBSS in each donor well contained one of the following probe substrates: BCRP, 2 μM [^3H]-prazosin; or P-gp, 100 nM [^3H]-quinidine. For positive control inhibition assays, HBSS contained the reference inhibitor in both donor and receiver wells, with the probe substrate only in donor wells. […] These samples were counted on a 1450 Microbeta (PerkinElmer). For samples containing test articles, samples were quantitated using LC-MS.
(§2) For BCRP and P-gp, apparent permeability Papp was determined using the equation Papp=(Vr/(A×C0))×(Cr/Δt) whereby Papp is the apparent permeability, Vr is the volume of the receiver compartment (mL), C0 is the initial concentration of the donor solution, A is the monolayer area (cm^2), Cr is the receiver well concentration at the end of the incubation, and Δt represents the change in time from t = 0 (s). The efflux ratio (ER) was determined by dividing Papp in the B→A direction by that in the A→B direction as: ER=Papp(B→A)/Papp(A→B).

P-gp = tested on: T3, P-gp; assay: P-gp substrate study, bi-directional flux in MDCK-MDR1 cells; type: in vitro ADME; settings: 10 μM ASO, Papp B to A / Papp A to B
T3 construct: host or cells: MDCK-MDR1 (MDCK cells stably transfected with MDR1)
Method: as §1, §2

CYP2E1 = CYP2E1 (Homo sapiens, UniProt P05181); settings: hepatocytes
Method: (§3) Preincubations were performed in 50 μL of Williams’ Medium E with 2 mM salicylamide. The salicylamide was included to reduce possible phase II conjugation to the precursor phase I metabolites. […] Human hepatocytes (pooled from 5 donors) were thawed and prepared according to the vendor’s protocol. […] Incubations were carried out at 37°C with 5% CO2. The incubation time was 45 min for phenacetin, diclofenac, dextromethorphan, midazolam, bupropion, chlorzoxazone, and testosterone and 90 min for paclitaxel and (S)-mephenytoin. The reactions were stopped by adding 200 μL of ice-cold acetonitrile (can) with tolbutamide (100 ng/mL) as the internal standard to 100 μL of hepatocyte suspension (1:2, v/v). The 96-well plate was then vortexed at 1,700 rpm for 3 min and centrifuged at 3,500 rpm for 10 min at 20°C. The supernatants were analyzed using liquid chromatography-tandem MS (LC-MS/MS).

CYP2C8 = target: T4, CYP2C8 (Homo sapiens, UniProt P10632); settings: hepatocytes
T4 sequence (P10632 1-490): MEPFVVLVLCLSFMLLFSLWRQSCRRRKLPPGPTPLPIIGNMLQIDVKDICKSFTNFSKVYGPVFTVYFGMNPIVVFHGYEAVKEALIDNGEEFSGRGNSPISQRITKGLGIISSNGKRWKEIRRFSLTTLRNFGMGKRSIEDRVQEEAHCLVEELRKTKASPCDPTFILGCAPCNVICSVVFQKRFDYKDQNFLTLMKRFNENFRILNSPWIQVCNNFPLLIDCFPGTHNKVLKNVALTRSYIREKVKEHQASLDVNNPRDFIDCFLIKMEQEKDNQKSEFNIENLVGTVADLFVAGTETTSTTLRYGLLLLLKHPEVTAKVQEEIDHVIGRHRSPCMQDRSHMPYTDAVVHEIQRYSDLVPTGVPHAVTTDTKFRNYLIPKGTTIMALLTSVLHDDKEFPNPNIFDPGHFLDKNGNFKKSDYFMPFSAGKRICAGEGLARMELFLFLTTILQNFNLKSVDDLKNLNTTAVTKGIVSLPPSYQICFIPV
Method: as §3

Chain of CYP2E1 (P05181 whole entry): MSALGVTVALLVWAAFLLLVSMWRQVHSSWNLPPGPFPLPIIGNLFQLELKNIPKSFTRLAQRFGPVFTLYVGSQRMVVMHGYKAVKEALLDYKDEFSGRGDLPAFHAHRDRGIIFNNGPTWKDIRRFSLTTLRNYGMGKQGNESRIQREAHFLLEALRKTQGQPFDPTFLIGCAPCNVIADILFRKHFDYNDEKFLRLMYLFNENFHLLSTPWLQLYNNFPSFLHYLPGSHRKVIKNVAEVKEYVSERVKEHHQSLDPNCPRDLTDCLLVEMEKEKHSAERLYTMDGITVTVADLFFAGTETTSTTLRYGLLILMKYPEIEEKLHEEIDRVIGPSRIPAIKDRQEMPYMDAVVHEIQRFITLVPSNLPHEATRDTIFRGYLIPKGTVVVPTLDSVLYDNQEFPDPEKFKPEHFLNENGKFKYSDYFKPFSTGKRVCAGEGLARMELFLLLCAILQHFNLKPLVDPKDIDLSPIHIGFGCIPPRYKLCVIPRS

Substance	OAT1-mediated uptake relative to corresponding controls (OAT1) [fold]	Efflux ratio, BCRP (BCRP)	Efflux ratio, P-gp (P-gp)	IC50 (CYP2E1) [µM]	IC50 (CYP2C8) [µM]
ISIS 304801: 20-mer (5-10-5) 2′-MOE gapmer PS backbone antisense inhibitor of apoC-III, sequence AGCTTCTTGTCCAGCTTTAT (sugars from the 5' end e5 d10 e5, all phosphorothioate, methylation of C not given here)	< 2	≤ 2.0	≤ 2.0	> 100	> 100
ISIS 681257: 20-mer 2′-MOE gapmer PS/PO mixed backbone ASO conjugated to 5′-trishexylamino GalNAc3, targets Lp(a), sequence TGCTCCGTTGGTGCTTGTTC (5' {GalNAc3}, sugars by position and backbone not given here; 2'-MOE gapmer with mixed PS/PO backbone)	< 2	≤ 2.0	≤ 2.0		
ISIS 420915: 20-mer 2′-MOE gapmer PS backbone antisense inhibitor of transthyretin, sequence TCTTGGTTACATGAAATCCC (all phosphorothioate, sugars by position and methylation of C not given here; 2'-MOE gapmer)	< 2	≤ 2.0	≤ 2.0	> 100	> 100
